Measurements from PubChem BioAssay AID1259407 (Chemical Carcinogenesis Research Information System (CCRIS), 2018).
Calls of active or inactive are those of the source. How the calls were made is not given here.

Test system: CCRIS mutagenicity, Ames/micronucleus/aberration tests
Test: CCRIS mutagenicity studies
[1] = Test System: AMES SALMONELLA TYPHIMURIUM, Strain/Indicator: TA98, Metabolic Activation: NONE, Method: STANDARD PLATE
[2] = Test System: AMES SALMONELLA TYPHIMURIUM, Strain/Indicator: TA98, Metabolic Activation: RAT, LIVER, S-9, AROCLOR 1254, Method: STANDARD PLATE
[3] = Test System: AMES SALMONELLA TYPHIMURIUM, Strain/Indicator: TA100, Metabolic Activation: NONE, Method: STANDARD PLATE
[4] = Test System: AMES SALMONELLA TYPHIMURIUM, Strain/Indicator: TA100, Metabolic Activation: RAT, LIVER, S-9, AROCLOR 1254, Method: STANDARD PLATE
[5] = Test System: AMES SALMONELLA TYPHIMURIUM, Strain/Indicator: TA100, Metabolic Activation: NONE, Method: PREINCUBATION
[6] = Test System: AMES SALMONELLA TYPHIMURIUM, Strain/Indicator: TA98, Metabolic Activation: NONE, Method: PREINCUBATION
[7] = Test System: AMES SALMONELLA TYPHIMURIUM, Strain/Indicator: TA1535, Metabolic Activation: NONE, Method: PREINCUBATION
[8] = Test System: AMES SALMONELLA TYPHIMURIUM, Strain/Indicator: TA1537, Metabolic Activation: NONE, Method: PREINCUBATION

In the case of `COc1cc2c(c3oc(=O)c4c(c13)CCC4=O)[C@@]1(O)[C@@H](O2)O[C@@H]2O[C@@H]21`, the mutagenic call (Test System: AMES SALMONELLA TYPHIMURIUM, Strain/Indicator: TA100, Metabolic Activation: NONE, Method: MICROSUSPENSION) is reported as “active; positive” and the mutagenic call (Test System: AMES SALMONELLA TYPHIMURIUM, Strain/Indicator: TA100, Metabolic Activation: RAT, LIVER, S-9, AROCLOR 1254, Method: MICROSUSPENSION) is reported as “active; positive”.
`C=CCc1ccccc1OCC(O)CNC(C)C` (stereo not given) was tested, and the mutagenic call [1] was “inactive; negative”, the mutagenic call [2] was “inactive; negative” and the mutagenic call [3] was “inactive; negative”. For the same compound, the mutagenic call [4] was “inactive; negative”.
With `Cc1cc2ccccc2c2ccc3c(c12)[C@H]1O[C@H]1[C@@H](O)[C@H]3O` the mutagenic call [5] was “active; positive”.
For `CCN(CCCl)CCCNc1c2ccc(Cl)cc2nc2ccc(OC)nc12`, the mutagenic call [1] was “active; positive”, the mutagenic call [3] was “active; positive” and the mutagenic call (Test System: AMES SALMONELLA TYPHIMURIUM, Strain/Indicator: TA1535, Metabolic Activation: NONE, Method: STANDARD PLATE) was “inactive; negative”. For the same compound, the mutagenic call (Test System: AMES SALMONELLA TYPHIMURIUM, Strain/Indicator: TA1536, Metabolic Activation: NONE, Method: STANDARD PLATE) was “active; positive”, the mutagenic call (Test System: AMES SALMONELLA TYPHIMURIUM, Strain/Indicator: TA1537, Metabolic Activation: NONE, Method: STANDARD PLATE) was “active; positive” and the mutagenic call (Test System: AMES SALMONELLA TYPHIMURIUM, Strain/Indicator: TA1538, Metabolic Activation: NONE, Method: STANDARD PLATE) was “active; positive”.
In the case of `CNC(=O)Oc1ccccc1`, the mutagenic call [2] is reported as “inactive; negative” and the mutagenic call (Test System: AMES SALMONELLA TYPHIMURIUM, Strain/Indicator: TA1535, Metabolic Activation: RAT, LIVER, S-9, AROCLOR 1254, Method: STANDARD PLATE) is reported as “inactive; negative”.
`CN(N=O)C(CCC(=O)O)c1cccnc1` (stereo not given) was tested, and the mutagenic call (Test System: UDS RODENT HEPATOCYTES, Metabolic Activation: NONE) was “inactive; negative”.
In the case of `CCOC(=O)C(C)NC(=O)C=[N+]=[N-]` (stereo not given), the mutagenic call (Test System: UDS RODENT CELLS, Strain/Indicator: THY INCORP (NON-S-PHASE), Metabolic Activation: NONE, Method: AUTORADIOGRAPHY) is reported as “active; positive”.
In the case of `c1ccc2c(c1)ccc1nc3ccc4c(c3cc12)CCCC4`, the mutagenic call (Test System: AMES SALMONELLA TYPHIMURIUM, Strain/Indicator: TA98, Metabolic Activation: GUINEA PIG, LIVER, S-9, 3-METHYLCHOLANTHRENE, Method: STANDARD PLATE) is reported as “inactive; negative” and the mutagenic call (Test System: AMES SALMONELLA TYPHIMURIUM, Strain/Indicator: TA100, Metabolic Activation: GUINEA PIG, LIVER, S-9, 3-METHYLCHOLANTHRENE, Method: STANDARD PLATE) is reported as “active; positive”.
`N=c1c2ncn(C(c3ccccc3)(c3ccccc3)c3ccccc3)c2ncn1O` was tested, and the mutagenic call (Test System: AMES SALMONELLA TYPHIMURIUM, Strain/Indicator: TA97, Metabolic Activation: NONE, Method: STANDARD PLATE) was “inactive; negative”, the mutagenic call (Test System: AMES SALMONELLA TYPHIMURIUM, Strain/Indicator: TA97, Metabolic Activation: RAT, LIVER, S-9, AROCLOR 1254, Method: STANDARD PLATE) was “inactive; negative” and the mutagenic call [1] was “inactive; negative”. The mutagenic call [2] was “active; positive”, the mutagenic call [3] was “inactive; negative” and the mutagenic call [4] was “inactive; negative”.
For `[B-]`, the mutagenic call [6] was “inactive; negative”, the mutagenic call (Test System: AMES SALMONELLA TYPHIMURIUM, Strain/Indicator: TA98, Metabolic Activation: RAT LIVER S-9, PHENOBARBITAL AND BETA-NAPHTHOFLAVONE, Method: PREINCUBATION) was “inactive; negative” and the mutagenic call [5] was “inactive; negative”. For the same compound, the mutagenic call (Test System: AMES SALMONELLA TYPHIMURIUM, Strain/Indicator: TA100, Metabolic Activation: RAT LIVER S-9, PHENOBARBITAL AND BETA-NAPHTHOFLAVONE, Method: PREINCUBATION) was “inactive; negative”, the mutagenic call [7] was “inactive; negative” and the mutagenic call (Test System: AMES SALMONELLA TYPHIMURIUM, Strain/Indicator: TA1535, Metabolic Activation: RAT LIVER S-9, PHENOBARBITAL AND BETA-NAPHTHOFLAVONE, Method: PREINCUBATION) was “inactive; negative”. The mutagenic call [8] was “inactive; negative”, the mutagenic call (Test System: AMES SALMONELLA TYPHIMURIUM, Strain/Indicator: TA1537, Metabolic Activation: RAT LIVER S-9, PHENOBARBITAL AND BETA-NAPHTHOFLAVONE, Method: PREINCUBATION) was “inactive; negative” and the mutagenic call (Test System: AMES SALMONELLA TYPHIMURIUM, Strain/Indicator: TA1538, Metabolic Activation: NONE, Method: PREINCUBATION) was “inactive; negative”. The mutagenic call (Test System: AMES SALMONELLA TYPHIMURIUM, Strain/Indicator: TA1538, Metabolic Activation: RAT LIVER S-9, PHENOBARBITAL AND BETA-NAPHTHOFLAVONE, Method: PREINCUBATION) was “inactive; negative”, the mutagenic call (Test System: E.COLI, Strain/Indicator: WP2UVRA, Metabolic Activation: NONE, Method: PREINCUBATION) was “inactive; negative” and the mutagenic call (Test System: E.COLI, Strain/Indicator: WP2UVRA, Metabolic Activation: RAT LIVER S-9, PHENOBARBITAL AND BETA-NAPHTHOFLAVONE, Method: PREINCUBATION) was “inactive; negative”.
In the case of `C[C@H]1COc2c(N3CCN(C)CC3)c(F)cc3c(=O)c(C(=O)O)cn1c23`, the mutagenic call [6] is reported as “inactive; negative”, the mutagenic call (Test System: AMES SALMONELLA TYPHIMURIUM, Strain/Indicator: TA98, Metabolic Activation: RAT, LIVER, S-9, PHENOBARBITAL AND BETA-NAPHTHOFLAVONE, Method: PREINCUBATION) is reported as “inactive; negative” and the mutagenic call [5] is reported as “inactive; negative”. For the same compound, the mutagenic call (Test System: AMES SALMONELLA TYPHIMURIUM, Strain/Indicator: TA100, Metabolic Activation: RAT, LIVER, S-9, PHENOBARBITAL AND BETA-NAPHTHOFLAVONE, Method: PREINCUBATION) was “inactive; negative”, the mutagenic call [7] was “inactive; negative” and the mutagenic call (Test System: AMES SALMONELLA TYPHIMURIUM, Strain/Indicator: TA1535, Metabolic Activation: RAT, LIVER, S-9, PHENOBARBITAL AND BETA-NAPHTHOFLAVONE, Method: PREINCUBATION) was “inactive; negative”. For the same compound, the mutagenic call [8] was “inactive; negative”, the mutagenic call (Test System: AMES SALMONELLA TYPHIMURIUM, Strain/Indicator: TA1537, Metabolic Activation: RAT, LIVER, S-9, PHENOBARBITAL AND BETA-NAPHTHOFLAVONE, Method: PREINCUBATION) was “inactive; negative” and the mutagenic call (Test System: CHINESE HAMSTER OVARY, Strain/Indicator: CHO-K1 (HGPRT)/6-THIOGUANINE, Metabolic Activation: NONE) was “inactive; negative”. The mutagenic call (Test System: CHINESE HAMSTER OVARY, Strain/Indicator: CHO-K1 (HGPRT)/6-THIOGUANINE, Metabolic Activation: RAT, LIVER, S-9, PHENOBARBITAL AND BETA-NAPHTHOFLAVONE) was “inactive; negative”, the mutagenic call (Test System: E.COLI, Strain/Indicator: WP2 UVRA, Metabolic Activation: NONE, Method: PREINCUBATION) was “inactive; negative” and the mutagenic call (Test System: E.COLI, Strain/Indicator: WP2 UVRA, Metabolic Activation: RAT, LIVER, S-9, PHENOBARBITAL AND BETA-NAPHTHOFLAVONE, Method: PREINCUBATION) was “inactive; negative”. The mutagenic call (Test System: UDS RAT HEPATOCYTES, Strain/Indicator: THY INCORP, Metabolic Activation: NONE, Method: IN VIVO-IN VITRO) was “inactive; negative”.
